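The compound was tested at five concentrations on cells cultured in 96-well plates, with a 48-hour exposure period. At the GI50, growth is halved.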 Active and inactive are the calls of the source. Rule as the data show it: active = GI50 up to about 1.1 µM and inactive = higher.
Experiments:
Experiment in all cases: NCI anticancer screen, dose series, 48 h
MDA-MB-231 = system: MDA-MB-231
NCI-H460 = system: NCI-H460
K562 = system: K562
COLO 205 = system: COLO 205
RPMI-8226 = system: RPMI-8226
HOP-62 = system: HOP-62
NCI-H522 = system: NCI-H522
EKVX = system: EKVX
SF-539 = system: SF-539
SW-620 = system: SW-620
MCF7 = system: MCF7
LOX IMVI = system: LOX IMVI
CAKI-1 = system: CAKI-1
OVCAR-3 = system: OVCAR-3
Hs-578T = system: Hs-578T
SK-MEL-28 = system: SK-MEL-28
HCT-116 = system: HCT-116
U-251 = system: U-251
OVCAR-8 = system: OVCAR-8
CCRF-CEM = system: CCRF-CEM
HL-60 = system: HL-60
IGROV-1 = system: IGROV-1
TK-10 = system: TK-10
SNB-75 = system: SNB-75
NCI/ADR-RES = system: NCI/ADR-RES
SK-MEL-2 = system: SK-MEL-2
SK-OV-3 = system: SK-OV-3
RXF 393 = system: RXF 393
M14 = system: M14
T47D = system: T47D
UACC-257 = system: UACC-257
SK-MEL-5 = system: SK-MEL-5
MDA-MB-435 = system: MDA-MB-435
MDA-N = system: MDA-N
UO-31 = system: UO-31
SNB-19 = system: SNB-19
A549 = system: A549
DU-145 = system: DU-145
OVCAR-5 = system: OVCAR-5
KM12 = system: KM12
PC-3 = system: PC-3
HT-29 = system: HT-29
MOLT-4 = system: MOLT-4
NCI-H226 = system: NCI-H226
SR = system: SR
SN12C = system: SN12C
ACHN = system: ACHN
SF-295 = system: SF-295
786-0 = system: 786-0
SF-268 = system: SF-268
NCI-H23 = system: NCI-H23
HCT-15 = system: HCT-15
HOP-92 = system: HOP-92
OVCAR-4 = system: OVCAR-4
HCC 2998 = system: HCC 2998

CC1(C)CC(=O)c2c(nc3ccc4ccccc4c3c2-c2ccc(NC(=O)CCC(=O)Nc3ccc(-c4c5c(nc6ccc7ccccc7c46)CC(C)(C)CC5=O)cc3)cc2)C1
GI50 (MDA-MB-231): > 100 µM (inactive) | GI50 (NCI-H460): > 100 µM (inactive) | GI50 (K562): > 100 µM (inactive) | GI50 (COLO 205): > 100 µM (inactive) | GI50 (RPMI-8226): > 100 µM (inactive) | GI50 (HOP-62): > 100 µM (inactive) | GI50 (NCI-H522): > 100 µM (inactive) | GI50 (EKVX): > 100 µM (inactive) | GI50 (SF-539): > 100 µM (inactive) | GI50 (SW-620): > 100 µM (inactive) | GI50 (MCF7): > 100 µM (inactive) | GI50 (LOX IMVI): > 100 µM (inactive) | GI50 (CAKI-1): > 100 µM (inactive) | GI50 (OVCAR-3): > 100 µM (inactive) | GI50 (Hs-578T): > 100 µM (inactive) | GI50 (SK-MEL-28): > 100 µM (inactive) | GI50 (HCT-116): > 100 µM (inactive) | GI50 (U-251): > 100 µM (inactive) | GI50 (OVCAR-8): > 100 µM (inactive) | GI50 (CCRF-CEM): > 100 µM (inactive) | GI50 (HL-60): > 100 µM (inactive) | GI50 (IGROV-1): > 100 µM (inactive) | GI50 (TK-10): > 100 µM (inactive) | GI50 (SNB-75): 28.2 µM (inactive) | GI50 (NCI/ADR-RES): > 100 µM (inactive) | GI50 (SK-MEL-2): > 100 µM (inactive) | GI50 (SK-OV-3): > 100 µM (inactive) | GI50 (RXF 393): > 100 µM (inactive) | GI50 (M14): > 100 µM (inactive) | GI50 (T47D): > 100 µM (inactive) | GI50 (UACC-257): > 100 µM (inactive) | GI50 (SK-MEL-5): > 100 µM (inactive) | GI50 (MDA-MB-435): > 100 µM (inactive) | GI50 (MDA-N): > 100 µM (inactive) | GI50 (UO-31): > 100 µM (inactive) | GI50 (SNB-19): > 100 µM (inactive) | GI50 (A549): > 100 µM (inactive) | GI50 (DU-145): > 100 µM (inactive) | GI50 (OVCAR-5): > 100 µM (inactive) | GI50 (KM12): > 100 µM (inactive) | GI50 (PC-3): > 100 µM (inactive) | GI50 (HT-29): > 100 µM (inactive) | GI50 (MOLT-4): > 100 µM (inactive) | GI50 (NCI-H226): > 100 µM (inactive) | GI50 (SR): > 100 µM (inactive) | GI50 (SN12C): > 100 µM (inactive) | GI50 (ACHN): > 100 µM (inactive) | GI50 (SF-295): > 100 µM (inactive) | GI50 (786-0): > 100 µM (inactive) | GI50 (SF-268): > 100 µM (inactive)

CN1C[C@H]2[C@@H](C1=O)[C@H](c1ccccc1)ON2C
GI50 (MDA-MB-231): > 100 µM (inactive) | GI50 (NCI-H460): > 100 µM (inactive) | GI50 (K562): > 100 µM (inactive) | GI50 (COLO 205): > 100 µM (inactive) | GI50 (RPMI-8226): > 100 µM (inactive) | GI50 (HOP-62): > 100 µM (inactive) | GI50 (NCI-H522): > 100 µM (inactive) | GI50 (SW-620): > 100 µM (inactive) | GI50 (MCF7): > 100 µM (inactive) | GI50 (LOX IMVI): > 100 µM (inactive) | GI50 (NCI-H23): > 100 µM (inactive) | GI50 (CAKI-1): > 100 µM (inactive) | GI50 (OVCAR-3): > 100 µM (inactive) | GI50 (Hs-578T): > 100 µM (inactive) | GI50 (SK-MEL-28): > 100 µM (inactive) | GI50 (HCT-116): > 100 µM (inactive) | GI50 (HCT-15): > 100 µM | GI50 (U-251): > 100 µM (inactive) | GI50 (OVCAR-8): > 100 µM (inactive) | GI50 (CCRF-CEM): > 100 µM (inactive) | GI50 (HL-60): > 10 µM (inactive) | GI50 (HOP-92): 59.2 µM (inactive) | GI50 (IGROV-1): > 100 µM (inactive) | GI50 (TK-10): > 100 µM (inactive) | GI50 (SNB-75): > 100 µM (inactive) | GI50 (NCI/ADR-RES): > 100 µM (inactive) | GI50 (SK-MEL-2): > 100 µM (inactive) | GI50 (SK-OV-3): > 100 µM (inactive) | GI50 (M14): > 100 µM (inactive) | GI50 (T47D): > 100 µM (inactive) | GI50 (UACC-257): > 100 µM (inactive) | GI50 (SK-MEL-5): > 100 µM (inactive) | GI50 (MDA-MB-435): > 100 µM (inactive) | GI50 (MDA-N): > 100 µM (inactive) | GI50 (UO-31): > 100 µM (inactive) | GI50 (SNB-19): > 100 µM (inactive) | GI50 (A549): > 100 µM (inactive) | GI50 (DU-145): > 100 µM (inactive) | GI50 (OVCAR-5): > 100 µM (inactive) | GI50 (OVCAR-4): > 100 µM (inactive) | GI50 (PC-3): > 100 µM (inactive) | GI50 (HT-29): > 100 µM (inactive) | GI50 (MOLT-4): > 100 µM (inactive) | GI50 (HCC 2998): > 100 µM (inactive) | GI50 (NCI-H226): > 100 µM (inactive) | GI50 (SR): > 100 µM (inactive) | GI50 (SN12C): > 100 µM (inactive) | GI50 (ACHN): > 100 µM (inactive) | GI50 (SF-295): > 100 µM (inactive)

— ChEMBL document CHEMBL1201862, “PubChem BioAssay data set” (2004)
